Data: US20230124720A1, “APPLICATION OF ACRIDINEDIONE COMPOUND IN PREPARATION OF ANTI-DIABETIC DRUGS” (THE FOURTH MILITARY MEDICAL UNIVERSITY, priority 2020, published 2023)

What was measured:
[1] = system: STZ-induced T2DM rats; test: Oral glucose tolerance test (OGTT) in T2DM rats; format: in vivo, rat; details: artificially induced T2DM rats
Protocol: 150 male SD rats, housed in cages in a clean constant temperature (23±2° C.) and humidity (55±10%) animal house, were manually adjusted on a daily 12 h/12 h diurnal light cycle with free access to water. After 3 days of adaptive feeding, 150 rats were randomly divided into normal and model groups. The normal (Con, n=15) group of rats remained on raw chow and the model group (n=135) of rats were given high fat high sugar chow. All rats were fed twice daily and the amount of feed was adjusted as needed to ensure adequate feed. After 8 weeks of group feeding, the model group rats were given an intraperitoneal injection of 25 mg/kg STZ solution with a 12 h fast prior to injection. After injection, feeding was continued as in the original method, blood was taken from the tail vein at 72 h for blood glucose measurement, and rats with fasting blood glucose levels ≥11.1 mmol/L on different days were screened for successful artificial induction of T2DM and administered in groups for the next experiment. 135 rats with successful modeling were randomly divided into 9 groups: […] […] Relevant indicators of lipid metabolism were measured after the end of the study. At the final week of the Oral Glucose Tolerance Test (OGTT) test, each group of rats was fasted from water 16 h after gavage administration and the fasting blood glucose value (as 0 min) was measured for each rat. […]

[2] = Plasma kinetics after single oral administration in SD rats (LC-MS/MS); format: in vivo, rat; details: single oral 10 mg/kg
Protocol: Eight healthy male SD rats, weighing 200-220 g, were housed in a clean animal room maintained at constant temperature (23±2° C.) and humidity (55±10%) with a 12 h/12 h artificial light cycle with free access to food and water and conditioned for 3 days prior to the experiment. All rats were fasted from water for 12 h prior to the experiment, and after oral administration of an ADD-16 solution (10 mg/kg) to each rat, and blood was taken at the orbital site at 5, 10, 15, 30, 45, 60, 120, 240, 360, 720, 1440 min. The blood was immediately fed into heparinized centrifuge tubes at 4° C., 3000 rpm/min, centrifuged for 10 min, and the supernatant plasma was carefully aspirated and stored at −80° C. Assays were performed by natural thawing at room temperature and plasma sample pre-treatment procedures were followed to determine plasma concentrations in rats following a single dose using the established LC-MS/MS method.

[3] = Tissue distribution kinetics in SD rats (LC-MS/MS); format: in vivo, rat; details: gavage 10 mg/kg
Protocol: 40 healthy male SD rats, weighing 200-220 g, were housed adaptively for three days and fasted for 12 h prior to the experiment. All rats were randomly divided into 5 groups, 8 for each group. Each group of rats was gavaged with the ADD-16 solution (10 mg/kg), anesthetized at 10, 30, 60, 240, 480 min after administration, and sacrificed by exsanguination of the abdominal aorta, respectively. Each group of rats was sacrificed by dissection to collect tissues such as heart, liver, spleen, lung, kidney, brain, and islets. After washing the tissue samples with physiological saline to clean surface blood, the tissue samples were blotted with filter paper to dry surface moisture, weighed, and stored at −80° C. The assay was performed by natural thawing at room temperature and the concentration of ADD-16 in each tissue was determined using the LC-MS/MS method.

[4] = system: MIN6 cells; test: Insulin secretion in PA-induced insulin-resistant MIN6 cells; format: cell-based, mouse
Protocol: MIN6 cells were seeded in 24-well plates and cultured as described in step 2.1 to a cell confluency of more than 80% and administrated in the following groups, with 12 replicates per group: (1) normal control group (Con): cultured with blank 1640 medium; (2) insulin resistance model panel (IR): treated with 0.125 mmol/L PA for 24 h to induce establishment of an insulin resistance model; (3) ADD-16 administration group (ADD): 10 μmol/L ADD-16 intervention was administered for 24 h after successful establishment of the insulin resistance model; (4) TAK875 control group (TAK875): 10 μmol/L TAK875 was administered as a positive control drug intervention for 24 h after successful establishment of the insulin resistance model; (5) metformin control group (MT): 10 mmol/L metformin was administered as a positive control drug intervention for 24 h after successful establishment of the insulin resistance model; (6) sitagliptin control group (ST): 10 μmol/L sitagliptin was administered as a positive control drug intervention for 24 h after successful establishment of the insulin resistance model. After the group administration, the medium was aspirated and washed 2 times with a KRB buffer without sugar, followed by the addition of the KRB buffer without sugar. […] After incubation at 37° C. for 1 h, all the medium in the wells was aspirated and centrifuged at 2000 rmp/min for 20 min, and the supernatant was collected and stored at −20° C. The insulin content was measured for each group.

[5] = system: ZDF rat islet tissue; test: Western Blot of insulin signaling related molecules in ZDF rat islet tissue; format: in vivo; details: compared to TD group, P<0.001, most pronounced at 10 mg/kg

CC1(C)CC(=O)C2=C(C1)NC1=C(C(=O)CC(C)(C)C1)C2c1ccc(OCc2ccc(C(=O)O)cc2)c(Br)c1 [ADD-16]
glucose tolerance (OGTT, in words) [1]: increase glucose tolerance | CL/F ([2]; male, SD, rat, plasma, po, 10 mg/kg, plasma, n = 8, read-out: CLz/F (clearance) (converted)): ~0.15 mL/min/kg | Cmax ([2]; male, SD, rat, plasma, po, 10 mg/kg, plasma, n = 8, read-out: Cmax (plasma concentration maximum)): ~0.395 µg/mL | Vd/F ([2]; male, SD, rat, plasma, po, 10 mg/kg, plasma, n = 8, read-out: Vz/F (apparent volume of distribution)): ~0.36 L/kg | half-life ([2]; male, SD, rat, plasma, po, 10 mg/kg, plasma, n = 8, read-out: t1/2z (half-life) (converted)): ~30.2 h | AUC(0-inf) ([2]; male, SD, rat, plasma, n = 8): 2.42 ± 0.527 µg·h/mL | AUC(0-t) ([2]; male, SD, rat, plasma, n = 8): 1.13 ± 0.0357 µg·h/mL | Tmax ([2]; male, SD, rat, plasma, n = 8): 0.5 h | MRT last ([2]; male, SD, rat, plasma, n = 8, read-out: MRT(0-t)): 8.8 ± 0.4 h | MRT inf ([2]; male, SD, rat, plasma, n = 8, read-out: MRT(0-∞)): 37.5 ± 9.2 h | time of maximum blood concentration [2]: 30 min | Cz ([2]; plasma, n = 8): 29.8 ± 10.3 ng/mL | VRT(0-t) ([2]; plasma, n = 8): 55.2 ± 3.0 h^2 | VRT(0-∞) ([2]; plasma, n = 8): 1908.2 ± 835.5 h^2 | islet targeting (in words) [3]: well-defined islet targeting | tissue Cmax order ([3]; AUC 0-8 order the same): liver>islets>lung>kidney>heart>spleen>brain | blood-brain barrier penetration (in words) ([3]; lowest concentration in brain tissue): does not readily penetrate the blood-brain barrier | insulin secretion level in insulin-resistant MIN6 cells (in words) ([4]; PA-induced IR model, 10 μmol/L, 24 h, 2.8 and 16.7 mmol/L glucose, P<0.001): even higher than in Con group | insulinotropic effect compared with TAK875 in insulin-resistant MIN6 cells (in words) ([4]; same administration concentrations (10 μmol/L)): slightly better than TAK875 | expression of insulin signaling-related molecules, Western Blot (in words) [5]: upregulate the expression of GPR40, PGC-1α, P-P38, P-EP300, PPARγ, P-AKT, PI3K, IRS1 and GLUT4
